Experimental data as given in PubChem BioAssay AID342 (DTP/NCI, 2004).
Several values for one entry are separate records, joined by “and”; a condition that tells them apart may be missing. Equal entries are not always repeated.

System: Swiss mice, Sarcoma 180 sc, mean tumor weight T/C
Assay: NCI In Vivo Anticancer Drug Screen. Data for tumor model Sarcoma 180 (subcutaneous) in Swiss mice
Details: endpoint: mean tumor weight, higher = larger tumour
Procedure: The antitumor activity of compounds was measured in mice bearing transplantable tumors. Survival or tumor size were measured and the results are expressed as the measurement made in the treated group (T) divided by the measurement made in the vehicle treated control group (C). The tumor model used in this assay is Sarcoma 180 (subcutaneous) in Swiss mice

[1] = dose: 1.0 mg/kg/injection, schedule: Q01DX007 (ip), vehicle: carboxymethylcellulose (CMC)
[2] = dose: 125.0 mg/kg/injection, schedule: Q01DX007 (ip), vehicle: carboxymethylcellulose (CMC)
[3] = dose: 30.0 mg/kg/injection, schedule: Q01DX007 (ip), vehicle: carboxymethylcellulose (CMC)

O=C(Nc1ccc(C2=NCCCN2)cc1)c1ccc(C(=O)Nc2ccc(C3=NCCCN3)cc2)cc1
T/C (dose: 0.2 mg/kg/injection, schedule: Q01DX007 (ip), vehicle: water): 83 % of control
T/C (dose: 0.4 mg/kg/injection, schedule: Q01DX007 (ip), vehicle: water): 106 % of control
T/C (dose: 0.8 mg/kg/injection, schedule: Q01DX007 (ip), vehicle: water): 88 % of control
T/C [1]: 80 % of control
T/C (dose: 1.6 mg/kg/injection, schedule: Q01DX007 (ip), vehicle: water): 90 % of control
T/C (dose: 2.0 mg/kg/injection, schedule: Q01DX007 (ip), vehicle: carboxymethylcellulose (CMC)): 93 % of control
T/C (dose: 8.0 mg/kg/injection, schedule: Q01DX007 (ip), vehicle: carboxymethylcellulose (CMC)): 104 % of control
T/C (dose: 16.0 mg/kg/injection, schedule: Q01DX007 (ip), vehicle: carboxymethylcellulose (CMC)): 25 % of control
T/C (dose: 32.0 mg/kg/injection, schedule: Q01DX007 (ip), vehicle: carboxymethylcellulose (CMC)): 14 % of control

Nc1ncnc2c1ccn2C1OC(CO)C(O)C1O (stereo not drawn)
T/C (dose: 0.62 mg/kg/injection, schedule: Q#A X014 (ip), vehicle: carboxymethylcellulose (CMC)): 90 % of control

CC1(C)OCC(C(OC(=O)c2ccccc2)C(OC2CCCCO2)C2COC(C)(C)O2)O1 (stereo not drawn)
T/C (dose: 62.5 mg/kg/injection, schedule: Q01DX007 (ip), vehicle: carboxymethylcellulose (CMC)): 90 % of control
T/C [2]: 86 % of control
T/C (dose: 250.0 mg/kg/injection, schedule: Q01DX007 (ip), vehicle: carboxymethylcellulose (CMC)): 100 % of control

CCCCC(=O)OCC1OC(n2cnc3c(=S)nc[nH]c32)C(OC(=O)CCCC)C1OC(=O)CCCC (stereo not drawn)
T/C (dose: 75.0 mg/kg/injection, schedule: Q01DX007 (ip), vehicle: carboxymethylcellulose (CMC)): 69 % of control
T/C [2]: 34 % of control
T/C (dose: 220.0 mg/kg/injection, schedule: Q01DX007 (ip), vehicle: carboxymethylcellulose (CMC)): 96 % of control
T/C (dose: 335.0 mg/kg/injection, schedule: Q01DX007 (ip), vehicle: carboxymethylcellulose (CMC)): 81 % of control
T/C (dose: 750.0 mg/kg/injection, schedule: Q01DX007 (ip), vehicle: carboxymethylcellulose (CMC)): 43 % of control

O=P1(N(CCCl)CCCl)NCCCO1 (stereo not drawn)
T/C (dose: 12.5 mg/kg/injection, schedule: Q01DX007 (ip), vehicle: carboxymethylcellulose (CMC)): 50 % of control and 55 % of control
T/C (dose: 15.0 mg/kg/injection, schedule: Q01DX007 (ip), vehicle: carboxymethylcellulose (CMC)): 88 % of control
T/C (dose: 23.88 mg/kg/injection, schedule: Q01DX007 (ip), vehicle: carboxymethylcellulose (CMC)): 101 % of control
T/C (dose: 25.0 mg/kg/injection, schedule: Q01DX007 (ip), vehicle: carboxymethylcellulose (CMC)): 70 % of control
T/C (dose: 29.85 mg/kg/injection, schedule: Q01DX007 (ip), vehicle: carboxymethylcellulose (CMC)): 97 % of control
T/C [3]: 25 % of control
T/C (dose: 39.8 mg/kg/injection, schedule: Q01DX007 (ip), vehicle: carboxymethylcellulose (CMC)): 72 % of control
T/C (dose: 59.7 mg/kg/injection, schedule: Q01DX007 (ip), vehicle: carboxymethylcellulose (CMC)): 34 % of control
T/C (dose: 60.0 mg/kg/injection, schedule: Q01DX007 (ip), vehicle: carboxymethylcellulose (CMC)): 4 % of control
T/C (dose: 80.0 mg/kg/injection, schedule: Q01DX007 (ip), vehicle: carboxymethylcellulose (CMC)): 4 % of control
T/C (dose: 746.25 mg/kg/injection, schedule: Q#A X014 (ip), vehicle: carboxymethylcellulose (CMC)): 65 % of control
T/C (dose: 1492.5 mg/kg/injection, schedule: Q#A X014 (ip), vehicle: carboxymethylcellulose (CMC)): 45 % of control
T/C (dose: 2985.0 mg/kg/injection, schedule: Q#A X014 (ip), vehicle: carboxymethylcellulose (CMC)): 7 % of control
T/C (dose: 3731.0 mg/kg/injection, schedule: Q#A X014 (ip), vehicle: carboxymethylcellulose (CMC)): 67 % of control

C1OC1C1CO1 (stereo not drawn)
T/C (dose: 4.5 mg/kg/injection, schedule: Q01DX007 (ip), vehicle: carboxymethylcellulose (CMC)): 68 % of control
T/C (dose: 4.63 mg/kg/injection, schedule: Q01DX007 (ip), vehicle: carboxymethylcellulose (CMC)): 99 % of control
T/C (dose: 9.0 mg/kg/injection, schedule: Q01DX007 (ip), vehicle: carboxymethylcellulose (CMC)): 97 % of control
T/C (dose: 9.25 mg/kg/injection, schedule: Q01DX007 (ip), vehicle: carboxymethylcellulose (CMC)): 74 % of control
T/C (dose: 13.76 mg/kg/injection, schedule: Q01DX007 (ip), vehicle: carboxymethylcellulose (CMC)): 80 % of control
T/C (dose: 17.2 mg/kg/injection, schedule: Q01DX007 (ip), vehicle: carboxymethylcellulose (CMC)): 107 % of control
T/C (dose: 18.0 mg/kg/injection, schedule: Q01DX007 (ip), vehicle: carboxymethylcellulose (CMC)): 53 % of control
T/C (dose: 18.5 mg/kg/injection, schedule: Q01DX007 (ip), vehicle: carboxymethylcellulose (CMC)): 71 % of control
T/C (dose: 22.93 mg/kg/injection, schedule: Q01DX007 (ip), vehicle: carboxymethylcellulose (CMC)): 82 % of control
T/C (dose: 34.4 mg/kg/injection, schedule: Q01DX007 (ip), vehicle: carboxymethylcellulose (CMC)): 80 % of control

C=CCNc1ccc(C)cc1
T/C [3]: 72 % of control and 88 % of control
T/C (dose: 55.0 mg/kg/injection, schedule: Q01DX007 (ip), vehicle: carboxymethylcellulose (CMC)): 86 % of control
T/C (dose: 69.0 mg/kg/injection, schedule: Q01DX007 (ip), vehicle: carboxymethylcellulose (CMC)): 109 % of control
T/C (dose: 83.0 mg/kg/injection, schedule: Q01DX007 (ip), vehicle: carboxymethylcellulose (CMC)): 76 % of control
T/C (dose: 105.0 mg/kg/injection, schedule: Q01DX007 (ip), vehicle: carboxymethylcellulose (CMC)): 76 % of control and 83 % of control
T/C [2]: 26 % of control
T/C (dose: 157.0 mg/kg/injection, schedule: Q01DX007 (ip), vehicle: carboxymethylcellulose (CMC)): 94 % of control

c1cncc(CSc2ncnc3nc[nH]c23)c1
T/C (dose: 11.1 mg/kg/injection, schedule: Q#A X014 (ip), vehicle: methylcellulose (MC)): 53 % of control
T/C (dose: 16.65 mg/kg/injection, schedule: Q#A X014 (ip), vehicle: methylcellulose (MC)): 60 % of control
T/C (dose: 25.0 mg/kg/injection, schedule: Q#A X014 (ip), vehicle: methylcellulose (MC)): 70 % of control
T/C (dose: 37.5 mg/kg/injection, schedule: Q#A X014 (ip), vehicle: methylcellulose (MC)): 47 % of control

CN(Cc1cnc2nc(N)nc(N)c2n1)c1ccc(C(=O)N[C@@H](CCC(=O)O)C(=O)O)cc1
T/C (dose: 0.12 mg/kg/injection, schedule: Q01DX007 (ip), vehicle: water): 101 % of control
T/C (dose: 0.12 mg/kg/injection, schedule: Q#A X014 (ip), vehicle: carboxymethylcellulose (CMC)): 123 % of control
T/C (dose: 0.25 mg/kg/injection, schedule: Q01DX007 (ip), vehicle: water): 57 % of control
T/C (dose: 0.25 mg/kg/injection, schedule: Q#A X014 (ip), vehicle: carboxymethylcellulose (CMC)): 121 % of control
T/C (dose: 0.5 mg/kg/injection, schedule: Q01DX007 (ip), vehicle: carboxymethylcellulose (CMC)): 95 % of control and 110 % of control
T/C (dose: 0.5 mg/kg/injection, schedule: Q#A X014 (ip), vehicle: carboxymethylcellulose (CMC)): 73 % of control
T/C (dose: 0.76 mg/kg/injection, schedule: Q01DX007 (ip), vehicle: carboxymethylcellulose (CMC)): 119 % of control
T/C [1]: 107 % of control
T/C (dose: 1.26 mg/kg/injection, schedule: Q01DX007 (ip), vehicle: carboxymethylcellulose (CMC)): 68 % of control
T/C (dose: 1.5 mg/kg/injection, schedule: Q01DX007 (ip), vehicle: carboxymethylcellulose (CMC)): 78 % of control and 86 % of control
T/C (dose: 1.9 mg/kg/injection, schedule: Q01DX007 (ip), vehicle: carboxymethylcellulose (CMC)): 68 % of control
T/C (dose: 237.0 micrograms/kg/injection, schedule: Q01DX007 (ip), vehicle: carboxymethylcellulose (CMC)): 105 % of control
T/C (dose: 475.0 micrograms/kg/injection, schedule: Q01DX007 (ip), vehicle: carboxymethylcellulose (CMC)): 104 % of control
T/C (dose: 950.0 micrograms/kg/injection, schedule: Q01DX007 (ip), vehicle: carboxymethylcellulose (CMC)): 83 % of control
T/C (dose: 1900.0 micrograms/kg/injection, schedule: Q01DX007 (ip), vehicle: carboxymethylcellulose (CMC)): 32 % of control
